From ChEMBL document CHEMBL1201862, “PubChem BioAssay data set” (2004)
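Briefly, cells in 96-well plates were exposed to five compound concentrations for 48 h, and endpoints were estimated by linear interpolation. GI50 is the concentration that inhibits growth by half.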 Calls of active or inactive are those of the source. Rule as the data show it: active = GI50 up to about 1.1 µM and inactive = higher.

How the values were obtained:
Assay in all cases: growth of human tumour cells (NCI), 48 h
SN12C = tested on: SN12C
CCRF-CEM = tested on: CCRF-CEM
TK-10 = tested on: TK-10
HCT-15 = tested on: HCT-15
EKVX = tested on: EKVX
SW-620 = tested on: SW-620
A549 = tested on: A549
KM-20L2 = tested on: KM-20L2
SF-295 = tested on: SF-295
LXFL 529 = tested on: LXFL 529
ACHN = tested on: ACHN
SK-MEL-5 = tested on: SK-MEL-5
A498 = tested on: A498
HCC 2998 = tested on: HCC 2998
KM12 = tested on: KM12
XF498 = tested on: XF498
SK-OV-3 = tested on: SK-OV-3
NCI-H460 = tested on: NCI-H460
SNB-75 = tested on: SNB-75
OVCAR-8 = tested on: OVCAR-8
UACC-257 = tested on: UACC-257
OVCAR-4 = tested on: OVCAR-4
U-251 = tested on: U-251
COLO 205 = tested on: COLO 205
CAKI-1 = tested on: CAKI-1
K562 = tested on: K562
DMS-273 = tested on: DMS-273
RXF 393 = tested on: RXF 393
SK-MEL-2 = tested on: SK-MEL-2
RXF 631 = tested on: RXF 631
RPMI-8226 = tested on: RPMI-8226
SNB-78 = tested on: SNB-78
OVCAR-3 = tested on: OVCAR-3
SNB-19 = tested on: SNB-19
786-0 = tested on: 786-0
DMS-114 = tested on: DMS-114
SR = tested on: SR
UACC-62 = tested on: UACC-62
UO-31 = tested on: UO-31
LOX IMVI = tested on: LOX IMVI
NCI-H522 = tested on: NCI-H522
SF-268 = tested on: SF-268
HOP-92 = tested on: HOP-92
DLD-1 = tested on: DLD-1
HL-60 = tested on: HL-60
HCT-116 = tested on: HCT-116
SK-MEL-28 = tested on: SK-MEL-28
M19-MEL = tested on: M19-MEL
HOP-62 = tested on: HOP-62
MOLT-4 = tested on: MOLT-4
M14 = tested on: M14
NCI-H226 = tested on: NCI-H226
NCI-H23 = tested on: NCI-H23
HOP-18 = tested on: HOP-18
SF-539 = tested on: SF-539
Malme-3M = tested on: Malme-3M
OVCAR-5 = tested on: OVCAR-5
HT-29 = tested on: HT-29
IGROV-1 = tested on: IGROV-1

OCCN(CCO)c1cccc(N(CCO)CCO)n1
GI50 (SN12C): > 10 µM (inactive) | GI50 (CCRF-CEM): > 100 µM (inactive) | GI50 (TK-10): > 100 µM (inactive) | GI50 (HCT-15): > 100 µM | GI50 (EKVX): > 100 µM (inactive) | GI50 (SW-620): > 100 µM (inactive) | GI50 (A549): > 100 µM (inactive) | GI50 (KM-20L2): > 100 µM (inactive) | GI50 (SF-295): > 100 µM (inactive) | GI50 (LXFL 529): > 100 µM (inactive) | GI50 (ACHN): > 100 µM (inactive) | GI50 (SK-MEL-5): > 100 µM (inactive) | GI50 (A498): > 100 µM (inactive) | GI50 (HCC 2998): > 10 µM (inactive) | GI50 (KM12): > 100 µM (inactive) | GI50 (XF498): 27.7 µM (inactive) | GI50 (SK-OV-3): > 100 µM (inactive) | GI50 (NCI-H460): > 100 µM (inactive) | GI50 (SNB-75): > 100 µM (inactive) | GI50 (OVCAR-8): > 100 µM (inactive) | GI50 (UACC-257): > 100 µM (inactive) | GI50 (OVCAR-4): > 100 µM (inactive) | GI50 (U-251): > 100 µM (inactive) | GI50 (COLO 205): > 100 µM (inactive) | GI50 (CAKI-1): > 100 µM (inactive) | GI50 (K562): > 100 µM (inactive) | GI50 (DMS-273): > 100 µM (inactive) | GI50 (RXF 393): > 100 µM (inactive) | GI50 (SK-MEL-2): > 100 µM (inactive) | GI50 (RXF 631): > 100 µM (inactive) | GI50 (RPMI-8226): > 100 µM (inactive) | GI50 (SNB-78): > 100 µM (inactive) | GI50 (OVCAR-3): > 100 µM (inactive) | GI50 (SNB-19): > 100 µM (inactive) | GI50 (786-0): > 100 µM (inactive) | GI50 (DMS-114): > 100 µM (inactive) | GI50 (SR): > 100 µM (inactive) | GI50 (UACC-62): 58.2 µM (inactive) | GI50 (UO-31): > 100 µM (inactive) | GI50 (LOX IMVI): > 100 µM (inactive) | GI50 (NCI-H522): > 100 µM (inactive) | GI50 (SF-268): > 100 µM (inactive) | GI50 (HOP-92): > 100 µM (inactive) | GI50 (DLD-1): > 100 µM (inactive) | GI50 (HL-60): > 100 µM (inactive) | GI50 (HCT-116): > 100 µM (inactive) | GI50 (SK-MEL-28): > 100 µM (inactive) | GI50 (M19-MEL): > 100 µM (inactive) | GI50 (HOP-62): > 100 µM (inactive) | GI50 (MOLT-4): > 100 µM (inactive) | GI50 (M14): > 100 µM (inactive)

COc1ccc(NS(=O)(=O)c2ccc(/N=C3\C=C(Nc4ccc(S(=O)(=O)Nc5ccc(OC)nn5)cc4)C(=O)c4ccccc43)cc2)nn1
GI50 (SN12C): 18.1 µM (inactive) | GI50 (CCRF-CEM): > 100 µM (inactive) | GI50 (TK-10): 21.9 µM (inactive) | GI50 (HCT-15): 17 µM | GI50 (EKVX): 24.8 µM (inactive) | GI50 (SW-620): 18.9 µM (inactive) | GI50 (A549): 17.9 µM (inactive) | GI50 (KM-20L2): 17.9 µM (inactive) | GI50 (SF-295): 17.1 µM (inactive) | GI50 (LXFL 529): 22.2 µM (inactive) | GI50 (ACHN): 19.1 µM (inactive) | GI50 (SK-MEL-5): 20.4 µM (inactive) | GI50 (A498): 15.3 µM (inactive) | GI50 (NCI-H226): 19.3 µM (inactive) | GI50 (HCC 2998): 19.6 µM (inactive) | GI50 (KM12): 16.7 µM (inactive) | GI50 (XF498): 22.6 µM (inactive) | GI50 (SK-OV-3): 18.1 µM (inactive) | GI50 (NCI-H460): 17.7 µM (inactive) | GI50 (SNB-75): 19.8 µM (inactive) | GI50 (OVCAR-8): 17.2 µM (inactive) | GI50 (UACC-257): 16.9 µM (inactive) | GI50 (OVCAR-4): 18.3 µM (inactive) | GI50 (U-251): 18 µM (inactive) | GI50 (NCI-H23): 16.2 µM (inactive) | GI50 (HOP-18): 16 µM (inactive) | GI50 (COLO 205): 17.7 µM (inactive) | GI50 (CAKI-1): 22 µM (inactive) | GI50 (K562): 61.1 µM (inactive) | GI50 (DMS-273): 14.9 µM (inactive) | GI50 (RXF 393): 18.4 µM (inactive) | GI50 (SK-MEL-2): 16.9 µM (inactive) | GI50 (RPMI-8226): 53.7 µM (inactive) | GI50 (SNB-78): 57 µM (inactive) | GI50 (OVCAR-3): 21 µM (inactive) | GI50 (SNB-19): 18.8 µM (inactive) | GI50 (786-0): 17.8 µM (inactive) | GI50 (DMS-114): 26.5 µM (inactive) | GI50 (SR): 83.6 µM (inactive) | GI50 (SF-539): 17.7 µM (inactive) | GI50 (UACC-62): 18.6 µM (inactive) | GI50 (UO-31): 19.7 µM (inactive) | GI50 (Malme-3M): 19 µM (inactive) | GI50 (OVCAR-5): 19.1 µM (inactive) | GI50 (HT-29): 20.5 µM (inactive) | GI50 (LOX IMVI): 16.7 µM (inactive) | GI50 (NCI-H522): 17 µM (inactive) | GI50 (SF-268): 21.4 µM (inactive) | GI50 (HOP-92): 31 µM (inactive) | GI50 (DLD-1): 18.5 µM (inactive) | GI50 (HL-60): > 100 µM (inactive) | GI50 (HCT-116): 17.5 µM (inactive) | GI50 (SK-MEL-28): 17.5 µM (inactive) | GI50 (IGROV-1): 23.9 µM (inactive) | GI50 (M19-MEL): 16.9 µM (inactive) | GI50 (MOLT-4): 87.9 µM (inactive) | GI50 (M14): 17.5 µM (inactive)
